Experimental data: patent publication US20220401414A1, “TREATMENT AND PREVENTION OF A NEURODEGENERATIVE DISORDER” (Inflazome Limited, priority 2019, published 2022)

System: 6-OHDA mouse model of Parkinson's disease
Assay: Studies C and D: amphetamine-induced ipsilateral rotations in the 6-OHDA mouse model
Type: in vivo, C57BL6 mice
Conditions: Study D, 3 mg/kg oral daily, day 21 after 6-OHDA (12 μg)
Protocol: To determine the oral efficacy of the compound of formula (I) in the 6-OHDA mouse model of Parkinson's disease.
8-week-old C57BL6 male mice (obtained from ARC, Perth, Australia) were housed under a 12-h light cycle in a SPF climate-controlled facility with food and water provided ad libitum for two weeks prior to study initiation. For treatment with the compound of formula (I), mice were dosed via oral gavage. Ten (10) mice in each group were dosed at 3 or 1 mg/kg, starting the day before (24 hr prior) stereotaxic surgery, and then QD until sacrifice.
6-OHDA (Sigma) was prepared immediately prior to surgeries. A sterile saline (0.9%) solution containing ascorbic acid (0.2%) was used as the vehicle to dissolve 6-OHDA. […] In order to inject a final concentration of 12 μg into the right striatum, a working stock of 6 mg/ml was made injecting a final volume of 2 μl.
Mice were anaesthetized using ketamine (100 mg/kg, i.p.) and xylazine (10 mg/kg i.p.)
anesthesia and were placed into a stereotactic frame with nose and ear bars specially adapted for mice. The lesion was performed using a 5 μl Hamilton syringe to deliver either vehicle or 6-OHDA (12 μg) at the following coordinates relative to bregma: AP: −1.2 mm; ML: −1.7 mm; DV: 3.5 mm into the right dorsal striatum according to the stereotaxic atlas (“The mouse brain in stereotaxic coordinates” by Paxinos and Franklin, 1997). After drilling a 1 mm burr-hole in the skull, a 2 μl volume of solution was infused at the target site at the rate of 0.5 μl per minute. The needle was held in place for at least 5 minutes after injection to minimize retrograde flow along the needle tract. Mice were administered a subcutaneous injection of sterile Ringer's solution to is facilitate recovery and were placed on a heat-pad until complete recovery from anesthesia.
Amphetamine-induced ipsilateral rotations were performed at day 21 post-surgery. Mice were injected with 2 mg/kg of D-amphetamine and placed in circular glass bowls.
After an acclimatization period of five minutes, the net ipsilateral rotations over ten minutes were recorded and counted. Quantitation was performed from recorded videos by an investigator blinded to the treatment groups.
The aim of study D was to compare the neuroprotective efficacy of the compound of formula (I) with MCC95o in the mouse unilateral 6-OHDA model at 3 mg/kg. The amphetamine-induced ipsilateral rotations and striatal dopamine (DA) levels were assessed, using a protocol identical to that used for study C, with ten (10) mice in each group being dosed at 3 mg/kg for each drug, starting the day before (24 hr prior) stereotaxic surgery, and then daily throughout until sacrifice.

CC(C)(O)c1coc(S(=O)(=O)NC(=O)Nc2c3c(cc4c2CCC4)CCC3)c1 [MCC950, reference compound]
reduction in amphetamine-induced rotations relative to the 6-OHDA untreated group: 55%
